The target of assay [1] is T1, NecC (Thelonectria discophora, UniProt A0A0S3Q283).
T1 sequence (A0A0S3Q283 1-558): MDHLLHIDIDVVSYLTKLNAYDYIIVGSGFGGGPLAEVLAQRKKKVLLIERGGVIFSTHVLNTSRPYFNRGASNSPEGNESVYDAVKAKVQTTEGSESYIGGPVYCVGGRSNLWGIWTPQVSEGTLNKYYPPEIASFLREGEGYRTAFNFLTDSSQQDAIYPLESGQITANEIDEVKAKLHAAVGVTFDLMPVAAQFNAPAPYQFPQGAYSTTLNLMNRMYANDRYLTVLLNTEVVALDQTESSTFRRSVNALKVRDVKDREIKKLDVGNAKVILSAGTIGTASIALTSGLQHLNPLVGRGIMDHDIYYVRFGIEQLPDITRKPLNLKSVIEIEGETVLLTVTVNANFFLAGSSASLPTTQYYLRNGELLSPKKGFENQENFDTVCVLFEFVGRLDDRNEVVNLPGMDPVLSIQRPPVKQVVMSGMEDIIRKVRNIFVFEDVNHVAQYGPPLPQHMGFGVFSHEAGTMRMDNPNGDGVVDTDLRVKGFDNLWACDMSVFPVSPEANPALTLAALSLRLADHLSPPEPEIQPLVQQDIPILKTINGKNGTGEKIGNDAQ
The experiment in a line: LC-MS of nectrisine formed (NaBH4 reduction, NBD-F label). The format is biochemical. Details: full-length cDNA in pET21b, C-terminal His tag, E. coli BL21 (DE3), Ni column; about 62 kDa. The following applies: 15 °C, 12.5 h.

The target of assay [2] is T1, NecC. The experiment in a line: H2O2 production, ABTS/peroxidase coupled, absorbance at […] nm. More on the design: native, purified from mycelium (ammonium sulfate, DEAE); FAD-like flavin; homo-oligomers about 8 mer to 16 mer. Conditions: pH 7.0, 30 °C. The format is biochemical.

Structures are written as SMILES.

Regarding `N[C@H](CO)[C@@H](O)[C@H](O)CO` [compound 2, 4-amino-4-deoxyarabinitol], the “LC-MS of nectrisine formed (NaBH4 reduction, NBD-F label)” value in assay [1] was “the recombinant NecC had 4-amino-4-deoxyarabinitol oxidase activity”. The “H2O2 production, ABTS/peroxidase coupled, absorbance at 420 nm” value in assay [2] (1 mM substrate, O2 as acceptor) is reported as 4-amino-4-deoxyarabinitol was the preferred substrate.
On to `OC[C@@H](O)[C@H](O)[C@@H](O)CO` [xylitol], for which, in assay [2] (xylitol in place of 4-amino-4-deoxyarabinitol), the “H2O2 production, ABTS/peroxidase coupled, absorbance at 420 nm” value is listed as “NecC also exhibited activity against some sugar alcohols”.

Values taken from paper PMC4718913, “Characterization of a novel oxidase from Thelonectria discophora SANK 18292 involved in nectrisine biosynthesis” (AMB Express, 2016).
